The text below walks through data of US12637413B2, “Fatty acid amide hydrolase (FAAH) cleavable prodrugs of thyromimetics and combination with peripherally restricted FAAH inhibitors” (Autobahn Therapeutics, Inc., priority 2021, dated 2026).

This test deals with T1, recombinant human FAAH (rhFAAH) (Homo sapiens, UniProt O00519).
T1 construct: purchased Cayman Chemical (Ann Arbor, MI, USA)
T1 sequence (O00519 1-579): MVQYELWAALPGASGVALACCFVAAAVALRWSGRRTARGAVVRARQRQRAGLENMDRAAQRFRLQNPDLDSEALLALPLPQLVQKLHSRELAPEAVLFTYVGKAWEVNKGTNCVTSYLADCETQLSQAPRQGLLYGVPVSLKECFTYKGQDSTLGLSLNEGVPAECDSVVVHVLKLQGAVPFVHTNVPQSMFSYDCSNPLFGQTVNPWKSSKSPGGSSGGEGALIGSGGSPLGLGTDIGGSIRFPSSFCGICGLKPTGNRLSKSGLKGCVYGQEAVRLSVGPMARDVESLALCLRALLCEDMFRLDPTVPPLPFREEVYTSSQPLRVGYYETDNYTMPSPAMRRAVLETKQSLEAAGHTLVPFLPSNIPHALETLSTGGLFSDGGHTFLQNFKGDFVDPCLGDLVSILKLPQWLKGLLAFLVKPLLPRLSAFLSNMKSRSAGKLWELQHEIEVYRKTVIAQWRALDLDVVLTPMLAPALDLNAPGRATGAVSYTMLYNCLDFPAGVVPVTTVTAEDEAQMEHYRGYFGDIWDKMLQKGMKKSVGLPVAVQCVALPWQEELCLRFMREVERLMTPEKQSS
The experiment in a line: FAAH substrate evaluation (acid metabolite formation). Format: biochemical. The note with it: observed rate constant for acid metabolite formation; 0.5 ng/μL rhFAAH, 1 μM test compound, room temperature, 0-60 minutes. As to the method:
Purified recombinant human FAAH (rhFAAH) was purchased from Cayman Chemical (Ann Arbor, MI, USA). The total volume for each incubation was 400 μL containing a final 0.5 ng/μL rhFAAH, 1 μM test compound, 1.25% ethanol or 1 μM PF-3845 (FAAH inhibitor), and 0.1% bovine serum albumin in Tris-EDTA buffer at pH 8.0). The positive control was LL-341001. The incubation was conducted at the room temperature. At 0, 5, 15, 30 and 60 minutes, an aliquot of 30 μL reaction mixtures was removed and mixed with 300 μL acetonitrile containing 5 ng/mL terfenadine and 10 ng/mL tolbutamide as internal standards to quench the reaction. The resulting mixture was centrifuged at 4000 rpm, 4° C. for 15 minutes, and 100 μL supernatant was ready for LC-MS/MS analysis to measure the formation of acid metabolite.
Acquity Ultra Performance LC system from Waters was used for sample analysis. The chromatography was performed on a reverse phase Kinetex 2.6 μm C18 column, 2.1×30 mm, 100 Å. The mobile phase A comprised of 0.1% formic acid in water and mobile phase B comprised of 0.1% formic acid in acetonitrile with a 2-min run time at the flow rate of 0.8 mL/min for the acid metabolite from positive control or a 1.5 min run time at the flow rate of 0.9 mL/min for the acid metabolite of test compounds. The mass spectrometer (API-5500 and API Q Trap 4000 Applied Biosystems/MDS SCIEX Instruments, Framingham, MA, USA) was operated under ESI positive or negative ion MRM mode.
The formation of acid metabolite was monitored and quantified using one calibration point of 1 μM. The observed rate constant (ke) for the acid metabolite formation was calculated by plotting the metabolite concentration versus time of incubation with the slope being ke and is shown in Table 1.

Turning to `CC(C)c1cc(Cc2c(Cl)cc(OCC(=O)NC[C@@H](C)O)cc2Cl)ccc1O` [Compound 7], the ke entry is “B (ke is less than 0.1 and more than 0)”.
Under `CC(C)c1cc(Cc2c(Cl)cc(OCC(=O)N[C@@H]3C[C@@H]3F)cc2Cl)ccc1O` [Compound 111, 2-(3,5-dichloro-4-(4-hydroxy-3-isopropylbenzyl)phenoxy)-N-((1R,2S)-2-fluorocyclopropyl)acetamide] stands “A (ke is more than or equal to 0.1)”; under `CCN(C)C(=O)COc1cc(Cl)c(Cc2ccc(O)c(C(C)C)c2F)c(Cl)c1` [Compound 34], “C (ke is 0)”; under `COc1ccc(NC(=O)COc2cc(Cl)c(Cc3ccc(O)c(C(C)C)c3)c(Cl)c2)cn1` [Compound 101, 2-(3,5-dichloro-4-{[4-hydroxy-3-(propan-2-yl)phenyl]methyl}phenoxy)-N-(6-methoxypyridin-3-yl)acetamide], “A (ke is more than or equal to 0.1)”.
On to `CC(C)c1cc(Cc2c(Cl)cc(OCC(=O)N(C)N(C)C)cc2Cl)ccc1O` [Compound 108, 2-(3,5-dichloro-4-(4-hydroxy-3-isopropylbenzyl)phenoxy)-N,N′,N′-trimethylacetohydrazide], for which the ke result is “B (ke is less than 0.1 and more than 0)”.
In the case of `CC(C)c1cc(Cc2c(Cl)cc(OCC(=O)Nc3cccc(O)c3)cc2Cl)ccc1O` [Compound 21], the ke entry is listed as “A (ke is more than or equal to 0.1)”.
Under `CNC(=O)COc1cc(F)c(Cc2ccc(O)c(C(C)C)c2)c(Cl)c1F` [Compound 42] stands “A (ke is more than or equal to 0.1)”.
The value for `CC(C)c1cc(Cc2c(Cl)cc(OCC(=O)NCCc3ccccc3)cc2Cl)ccc1O` [Compound 23] was “B (ke is less than 0.1 and more than 0)”; that for `CC(C)c1c(O)ccc(Cc2c(Cl)cc(OCC(N)=O)cc2Cl)c1F` [Compound 35] was “A (ke is more than or equal to 0.1)”; that for `CC(C)c1cc(Cc2c(Cl)cc(OCC(=O)NC3COC3)cc2Cl)ccc1O` [Compound 18] was “A (ke is more than or equal to 0.1)”.
The value for `C#CCNC(=O)COc1cc(Cl)c(Cc2ccc(O)c(C(C)C)c2)c(Cl)c1` [Compound 5] was “A (ke is more than or equal to 0.1)”.
Take `CC(C)c1cc(Cc2c(Cl)cc(OCC(=O)NCCCF)cc2Cl)ccc1O` [Compound 112, 2-(3,5-dichloro-4-(4-hydroxy-3-isopropylbenzyl)phenoxy)-N-(3-fluoropropyl)acetamide]: the ke entry was “A (ke is more than or equal to 0.1)”.
Turning to `CC(C)c1cc(Cc2c(Cl)cc(OCC(=O)NCCS(C)(=O)=O)cc2Cl)ccc1O` [Compound 30], the ke result is “A (ke is more than or equal to 0.1)”.
The value for `CC(C)c1cc(Cc2c(Cl)cc(OCC(=O)N(C)C(C)C)cc2Cl)ccc1O` [Compound 122, 2-(3,5-dichloro-4-(4-hydroxy-3-isopropylbenzyl)phenoxy)-N-isopropyl-N-methylacetamide] was “B (ke is less than 0.1 and more than 0)”; that for `CC#CCN(C)C(=O)COc1cc(Cl)c(Cc2ccc(O)c(C(C)C)c2)c(Cl)c1` [Compound 107, N-(but-2-yn-1-yl)-2-(3,5-dichloro-4-(4-hydroxy-3-isopropylbenzyl)phenoxy)-N-methylacetamide] was “B (ke is less than 0.1 and more than 0)”; that for `CC(C)c1cc(Cc2c(Cl)cc(OCC(=O)N(C)CC(F)F)cc2Cl)ccc1O` [Compound 132, 2-(3,5-dichloro-4-(4-hydroxy-3-isopropylbenzyl)phenoxy)-N-(2,2-difluoroethyl)-N-methylacetamide] was “B (ke is less than 0.1 and more than 0)”.
Consider `CC(C)c1cc(Cc2c(Cl)cc(OCC(=O)NCC#N)cc2Cl)ccc1O` [Compound 29], for which the ke entry was “A (ke is more than or equal to 0.1)”.
Take `CC(C)c1cc(Cc2c(Cl)cc(OCC(=O)NC(CO)CO)cc2Cl)ccc1O` [Compound 11]: the ke entry was “B (ke is less than 0.1 and more than 0)”.
Under `CNC(=O)COc1cc(Cl)c(Cc2ccc(O)c(C(C)C)c2F)c(Cl)c1F` [Compound 39] stands “B (ke is less than 0.1 and more than 0)”.
Take `CC(C)c1cc(Cc2c(Cl)cc(OCC(=O)N3CCCC3)cc2Cl)ccc1O` [Compound 117, 2-(3,5-dichloro-4-(4-hydroxy-3-isopropylbenzyl)phenoxy)-1-(pyrrolidin-1-yl)ethan-1-one]: the ke entry is “B (ke is less than 0.1 and more than 0)”.
Under `CC(C)c1cc(Cc2c(Cl)cc(OCC(=O)N3CCC3)cc2Cl)ccc1O` [Compound 118, 1-(azetidin-1-yl)-2-(3,5-dichloro-4-(4-hydroxy-3-isopropylbenzyl)phenoxy)ethan-1-one] stands “B (ke is less than 0.1 and more than 0)”.
Under `CC(C)c1c(O)ccc(Cc2c(Cl)cc(OCC(=O)NCCF)cc2Cl)c1F` [Compound 36] stands “A (ke is more than or equal to 0.1)”.
Take `CC(C)c1cc(Cc2c(Cl)cc(OCC(=O)Nc3ccncc3)cc2Cl)ccc1O` [Compound 115, 2-(3,5-dichloro-4-(4-hydroxy-3-isopropylbenzyl)phenoxy)-N-(pyridin-4-yl)acetamide]: the ke result is recorded as “A (ke is more than or equal to 0.1)”.
On to `CCNC(=O)COc1cc(Cl)c(Cc2ccc(O)c(C(C)C)c2)c(Cl)c1` [Compound 2], for which the ke result is recorded as “A (ke is more than or equal to 0.1)”.
Under `CC(C)c1cc(Cc2c(Cl)cc(OCC(=O)Nc3ccnnc3)cc2Cl)ccc1O` [Compound 116, 2-(3,5-dichloro-4-(4-hydroxy-3-isopropylbenzyl)phenoxy)-N-(pyridazin-4-yl)acetamide] stands “A (ke is more than or equal to 0.1)”; under `CC(C)c1cc(Cc2c(Cl)cc(OCC(=O)N(C)CC(F)(F)F)cc2Cl)ccc1O` [Compound 131, 2-(3,5-dichloro-4-(4-hydroxy-3-isopropylbenzyl)phenoxy)-N-methyl-N-(2,2,2-trifluoroethyl)acetamide], “B (ke is less than 0.1 and more than 0)”.
The value for `CC(C)c1cc(Cc2c(Cl)cc(OCC(=O)NCCF)cc2Cl)ccc1O` [Compound 14] was “A (ke is more than or equal to 0.1)”; that for `CC(C)CN(C)C(=O)COc1cc(Cl)c(Cc2ccc(O)c(C(C)C)c2)c(Cl)c1` [Compound 120, 2-(3,5-dichloro-4-(4-hydroxy-3-isopropylbenzyl)phenoxy)-N-isobutyl-N-methylacetamide] was “C (ke is 0)”.
The value for `CC(C)c1cc(Cc2c(Cl)cc(OCC(=O)NCC(F)F)cc2Cl)ccc1O` [Compound 15] was “A (ke is more than or equal to 0.1)”; that for `CCNC(=O)COc1cc(Cl)c(Cc2ccc(O)c(C(C)C)c2F)c(Cl)c1` [Compound 33] was “A (ke is more than or equal to 0.1)”; that for `CC(C)c1cc(Cc2c(Cl)cc(OCC(=O)N(C)C)cc2Cl)ccc1O` [Compound 19] was “B (ke is less than 0.1 and more than 0)”.
For the compound `CC(C)c1cc(Cc2c(Cl)cc(OCC(=O)NN)cc2Cl)ccc1O` [Compound 27], the ke result was “A (ke is more than or equal to 0.1)”.
As for `CC(C)c1cc(Cc2c(Cl)cc(OCC(=O)Nc3ccccc3O)cc2Cl)ccc1O` [Compound 20], the ke result was “A (ke is more than or equal to 0.1)”.
As for `CC(C)c1cc(Cc2c(Cl)cc(OCC(=O)Nc3cccnc3)cc2Cl)ccc1O` [Compound 114, 2-(3,5-dichloro-4-(4-hydroxy-3-isopropylbenzyl)phenoxy)-N-(pyridin-3-yl)acetamide], the ke entry was “A (ke is more than or equal to 0.1)”.
The value for `CON(C)C(=O)COc1cc(Cl)c(Cc2ccc(O)c(C(C)C)c2F)c(Cl)c1` [Compound 44] was “A (ke is more than or equal to 0.1)”.
Consider `CC(C)NC(=O)COc1cc(Cl)c(Cc2ccc(O)c(C(C)C)c2)c(Cl)c1` [Compound 126, 2-(3,5-dichloro-4-(4-hydroxy-3-isopropylbenzyl)phenoxy)-N-isopropylacetamide], for which the ke result is given as “A (ke is more than or equal to 0.1)”.
`CC(C)c1cc(Cc2c(Cl)cc(OCC(=O)N3CCOCC3)cc2Cl)ccc1O` [Compound 133, 2-(3,5-dichloro-4-(4-hydroxy-3-isopropylbenzyl)phenoxy)-1-morpholinoethan-1-one]: the ke result is listed as “A (ke is more than or equal to 0.1)”.
